Assay results from patent US4420481A, “Use of piperazine compounds as immunopotentiating agents” (Mitsuitoatsu Chemicals Inc., priority 1980, dated 1983).
Counter-ions that a name gives are not always drawn.

Assays:
delayed hypersensitivity = experiment: Test 1: Test of Reinforcement of Delayed Hypersensitivity; assay type: in vivo, ICR male mice; details: mouse
Text: Various test systems using animals have been proposed for determining the immunopotensiative action. Results of the test of reinforcement of the delayed hypersensitivity, which is a typical test among these tests, will now be described.
This system was used for the test of reinforcement of the delayed hypersensitivity.
One groups of eight ICR male mice, each having a body weight of about 30 g, were used for the test.
Sensitization was effected by coating a 7% solution of picryl chloride in a 4/1 mixture of olive oil and acetone on the shaved abdomen of the mouse.
Simultaneously with sensitization, a solution or suspension of the compound of the present invention in a 0.2% solution of carboxymethyl cellulose in a physiological saline solution was orally administered to the mouse at a dose of 50 mg per Kg of the body weight. To the control group, a 0.2% carboxymethyl cellulose solution in a physiological saline solution was similarly administered.
The delayed hypersensitivity was challenged 7 days after sensitization by gripping the ear of the mouse by a forceps wrapped with a felt impregnated with a 1% solution of picryl chloride in olive oil and coating the ear with the solution. The thickness of the ear was measured before challenging and 24 hours after challenging and the ratio of increase of the thickness (average value of both the ears in eight mice±standard deviation) was obtained as shown in Table 1.
For comparison, the test was similarly carried out by using Levamisol hydrochloride, and the obtained results are shown in Table 1. F.t tests were carried out. The group in which the test result was significant at a level of P<0.05 was marked by *, and the group in which the test result was significant at a level of P<0.01 ws marked by **.

Sarcoma 180 [1] = experiment: Test 5: Test of Carcinostatic Effect to Sarcoma 180 by Subcutaneous Administration; assay type: in vivo, ICR female mice; details: 20 mg/Kg subcutaneous
Description: To the control group, a physiological saline solution was similarly administered. […] The diameter D (mm) of the tumor was measured, and the average value and the number N of the living mice were determined to obtain results shown in Table 4.

EL-4 leukemic cells = experiment: Test 3: In-Vitro Test of Inhibition of Growth of Cancer Cell by Macrophage; assay type: cell-based; details: for Take-In Ratio of 3H-thymidine (average value): 8 mg/Kg intraperitoneal to mice, macrophages collected after 4 days, with EL-4 cells, control 80.2
Description: The results of the test of the action of the effective ingredient of the present invention on the macrophage will now be described with reference to the following Test 3. More specifically, the separated macrophage and EL-4 leukemic cell were mixed and cultured, and ^3 H-thymidine was added to a culture medium and the quantity of ^3 H-thymidine incorporated into the EL-4 cell was determined to examine the activity of the macrophage. When the macrophage is activated by administration of the effective ingredient of the present invention, inhibition of the growth of EL-4 cell, that is, phagocytosis of the cancer cell by the macrophage, is observed. Accordingly, if the take-in amount of ^3 H-thymidine is measured and this amount is reduced, it is confirmed that the macrophage has been activated. […] The dose was 8 mg per Kg of the body weight. To the control group, a physiological saline solution was similarly administered. After passage of 4 days, exuded abdominal cells were collected and deposited on a plastic Petri dish to collect microphages. Then, 1×10^6 of so obtained macrophages and 1×10^5 of EL-4 leukemic cells of C57 BL/6J mouse were mixed with cultured in an RPM1 1640 culture medium to which 10% of bovine embryo serum was added (at 37° C. in the presence of 5% of CO2) for 24 hours. Then, 0.1μ Ci of ^3 H-thymidine was added and culturing was further conducted for 16 hours. Cells were collected on a filter paper from the culture medium and the amount of ^3 H-thymidine taken in was determined by a liquid scintillation counter. […] For comparison, the test was similarly carried out by using Levamisol hydrochloride. Results

Sarcoma 180 [2] = experiment: Test 4: Test of Antitumor Effect to Sarcoma 180 by Oral Administration; assay type: in vivo, ICR female mice; details: for D: average diameter of tumor: 100 mg/Kg oral once a day, 10 days
Description: To the control group, a physiological saline solution was similarly administered. The dose of the compound was 100 mg per Kg of the body weight. The diameter D (mm) of the tumor was measured, and the average value and the number N of the living mice were determined to obtain results shown in Table 4.

adjuvant arthritis = experiment: Test 2: Adjuvant Arthritis Test; assay type: in vivo, SD male rats; details: rat, 5 mg/Kg subcutaneous, 9 times, left hind leg, * P<0.05, ** P<0.01
[3] = 50 mg/Kg oral, 24 hours after challenge, * P<0.05, ** P<0.01, control 29.6 ± 1.9
[4] = 0 weeks, 100 mg/Kg oral, control 6
[5] = 2 weeks, 100 mg/Kg oral, control 6
[6] = 4 weeks, 100 mg/Kg oral, control 6
[7] = 6 weeks, 100 mg/Kg oral, control 6
[8] = 8 weeks, 100 mg/Kg oral, control 5
[9] = 10 weeks, 100 mg/Kg oral, control 1

## CN1CCN(C(=O)N2CCCCC2)CC1 [drawing 8]
Delayed hypersensitivity; [3]
  Ratio of Increase of Ear Thickness (average value ± Standard Variation): 43.5 ± 2.8%

## O=C(N1CCCCC1)N1CCN(c2ccccc2)CC1 [drawing 21]
Sarcoma 180 [1]; 0 weeks, control 6
  N: number of living mice: 6
Sarcoma 180 [1]; 2 weeks, control 6
  N: number of living mice: 6
Sarcoma 180 [1]; 2 weeks, control 10.8
  D: average diameter of tumor: 2.4 mm
Sarcoma 180 [1]; 4 weeks, control 6
  N: number of living mice: 6
Sarcoma 180 [1]; 4 weeks, control 16.6
  D: average diameter of tumor: 3.9 mm
Sarcoma 180 [1]; 6 weeks, control 6
  N: number of living mice: 6
Sarcoma 180 [1]; 6 weeks, control 20.3
  D: average diameter of tumor: 5.2 mm
Sarcoma 180 [1]; 8 weeks, control 4
  N: number of living mice: 6
Sarcoma 180 [1]; 8 weeks, control 31.2
  D: average diameter of tumor: 0.2 mm
Sarcoma 180 [1]; 10 weeks, control 1
  N: number of living mice: 6
Sarcoma 180 [1]; 10 weeks, control 40.5
  D: average diameter of tumor: 0 mm

## CN1CCN(C(=O)N2CCCC2)CC1 [drawing 13]
EL-4 leukemic cells
  Take-In Ratio of 3H-thymidine (average value): 25.7%

## CN1CCN(C(=O)N2CCCCC2)CC1 [drawing 17]
Sarcoma 180 [2]; [4]
  N: number of living mice: 6
Sarcoma 180 [2]; 2 weeks, control 10.6
  D: average diameter of tumor: 6.0 mm
Sarcoma 180 [2]; [5]
  N: number of living mice: 6
Sarcoma 180 [2]; 4 weeks, control 15.2
  D: average diameter of tumor: 4.7 mm
Sarcoma 180 [2]; [6]
  N: number of living mice: 6
Sarcoma 180 [2]; 6 weeks, control 22.4
  D: average diameter of tumor: 4.8 mm
Sarcoma 180 [2]; [7]
  N: number of living mice: 6
Sarcoma 180 [2]; 8 weeks, control 31.5
  D: average diameter of tumor: 3.3 mm
Sarcoma 180 [2]; [8]
  N: number of living mice: 6
Sarcoma 180 [2]; 10 weeks, control 37.6
  D: average diameter of tumor: 0 mm
Sarcoma 180 [2]; [9]
  N: number of living mice: 6

## c1ccc([C@H]2CN3CCSC3=N2)cc1 [Levamisole.hydrochloride, reference compound]
EL-4 leukemic cells; 8 mg/Kg intraperitoneal
  activation of macrophage / phagocytosis of cancer cells (in words): hardly exhibits such action
  inhibition of take-in of 3H-thymidine by EL-4 leukemic cells (in words): does not exhibit such action
EL-4 leukemic cells
  Take-In Ratio of 3H-thymidine (average value): 49.0%
Sarcoma 180 [1]; 0 weeks, control 6
  N: number of living mice: 6
Sarcoma 180 [1]
  carcinostatic activity (in words): no substantial carcinostatic activity
Sarcoma 180 [1]; 2 weeks, control 6
  N: number of living mice: 6
Sarcoma 180 [1]; 2 weeks, control 10.8
  D: average diameter of tumor: 7.7 mm
Sarcoma 180 [1]; 4 weeks, control 6
  N: number of living mice: 6
Sarcoma 180 [1]; 4 weeks, control 16.6
  D: average diameter of tumor: 14.8 mm
Sarcoma 180 [1]; 6 weeks, control 6
  N: number of living mice: 6
Sarcoma 180 [1]; 6 weeks, control 20.3
  D: average diameter of tumor: 14.4 mm
Sarcoma 180 [1]; 8 weeks, control 4
  N: number of living mice: 3
Sarcoma 180 [1]; 8 weeks, control 31.2
  D: average diameter of tumor: 30.2 mm
Sarcoma 180 [1]; 10 weeks, control 1
  N: number of living mice: 2
Sarcoma 180 [1]; 10 weeks, control 40.5
  D: average diameter of tumor: 31.6 mm
Delayed hypersensitivity; in vivo
  Ratio of Increase of Ear Thickness (average value ± Standard Variation): 35.6 ± 2.4%
Adjuvant arthritis; 15 days, control 84.4 ± 9.0
  Swelling Ratio (average value ± standard variation): 65.2 ± 5.9%
Adjuvant arthritis; 18 days, control 103.2 ± 9.7
  Swelling Ratio (average value ± standard variation): 69.3 ± 7.1%
Adjuvant arthritis; 21 days, control 107.5 ± 13.3
  Swelling Ratio (average value ± standard variation): 80.7 ± 9.6%
Sarcoma 180 [2]; [4]
  N: number of living mice: 6
Sarcoma 180 [2]; 100 mg/Kg oral, repeated
  carcinostatic action (in words): no substantial carcinostatic action was observed
Sarcoma 180 [2]; 2 weeks, control 10.6
  D: average diameter of tumor: 10.2 mm
Sarcoma 180 [2]; [5]
  N: number of living mice: 6
Sarcoma 180 [2]; 4 weeks, control 15.2
  D: average diameter of tumor: 16.2 mm
Sarcoma 180 [2]; [6]
  N: number of living mice: 6
Sarcoma 180 [2]; 6 weeks, control 22.4
  D: average diameter of tumor: 20.7 mm
Sarcoma 180 [2]; [7]
  N: number of living mice: 6
Sarcoma 180 [2]; 8 weeks, control 31.5
  D: average diameter of tumor: 29.6 mm
Sarcoma 180 [2]; [8]
  N: number of living mice: 6
Sarcoma 180 [2]; 10 weeks, control 37.6
  D: average diameter of tumor: 28.1 mm
Sarcoma 180 [2]; [9]
  N: number of living mice: 6

## CN1CCN(C(=O)N2CCCC2)CC1 [drawing 10]
Adjuvant arthritis; 15 days, control 84.4 ± 9.0
  Swelling Ratio (average value ± standard variation): 54.6 ± 11.3%
Adjuvant arthritis; 18 days, control 103.2 ± 9.7
  Swelling Ratio (average value ± standard variation): 61.7 ± 13.0%
Adjuvant arthritis; 21 days, control 107.5 ± 13.3
  Swelling Ratio (average value ± standard variation): 73.3 ± 14.6%

## O=C(N1CCCCC1)N1CCN(c2ccccc2)CC1 [drawing 9]
Delayed hypersensitivity; [3]
  Ratio of Increase of Ear Thickness (average value ± Standard Variation): 45.0 ± 4.6%

## O=C(N1CCCCC1)N1CCN(c2ccccc2)CC1 [drawing 15]
EL-4 leukemic cells
  Take-In Ratio of 3H-thymidine (average value): 21.9%
